Experiments:
[1] = tested on: beta-catenin target gene promoters; assay: ChIP-RT-PCR of β-catenin recruitment to target promoters in HCT116 cells; assay type: cell-based, human
Text: (§1) See, for example: • Polakis P. Drugging Wnt signalling in cancer. EMBO J. 2012 May 22; 31(12):2737-46; Bialkowska A B, Yang V W. High-throughput screening strategies for targeted identification of therapeutic compounds in colorectal cancer. Future Oncol. 2012 March; 8(3):259-72; • Huang S M, Mishina Y M, Liu S, Cheung A, Stegmeier F, Michaud G A, Charlat O, Wiellette E, Zhang Y, Wiessner S. Hild M, Shi X, Wilson C J, Mickanin C. Myer V, Fazal A, Tomlinson R, Serluca F, Shao W, Cheng H, Shultz M, Rau C, Schirle M, Schlegl J, Ghidelli S, Fawell S, Lu C, Curtis D, Kirschner M W, Lengauer C. Finan P M, Tallarico J A, Bouwmeester T, Porter J A, Bauer A, Cong F. Tankyrase inhibition stabilizes axin and antagonizes Wnt signalling. Nature. 2009 Oct. 1; 461(7264):614-20; • Chen B, Dodge M E, Tang W, Lu J, Ma Z, Fan C W, Wei S, Hao W, Kilgore J, Williams N S, Roth M G, Amatruda J F. Chen C. Lum L. Small molecule-mediated disruption of Wnt-dependent signaling in tissue regeneration and cancer. Nat Chem. Biol. 2009 February; 5(2): 100-7; • Thorne C A, Hanson A J, Schneider J, Tahinci E, Orton D, Cselenyi C S, Jernigan K K, Meyers K C, Hang B I, Waterson A G, Kim K, Melancon B, Ghidu V P, Sulikowski G A, LaFleur B, Salic A, Lee L A, Miller D M 3rd, Lee E. Small-molecule inhibition of Wnt signaling through activation of casein kinase 1α. […]

β-catenin [2] = assay: Wnt-induced β-catenin accumulation; assay type: cell-based
Text: as §1

β-catenin [3] = assay: β-catenin protein level and phosphorylation in HCT116 cells; assay type: cell-based, human
Text: as §1

[4] = tested on: Wnt/β-catenin-independent cancer cells; assay: Cytotoxicity in Wnt/β-catenin-independent cancer cells; assay type: cell-based
Text: as §1

β-catenin/TCF = assay: TCF/LEF reporter (TOP-Luciferase) assay in Wnt-dependent HCT116; assay type: cell-based, human
Text: as §1

[5] = tested on: H23 human lung cancer cells; assay: Xenograft study, H23; assay type: in vivo; conditions: H23 xenograft in mice, 20 mg/kg daily i.p.
Procedure: (§2) A, HCT116 colon cancer cells; B, HT115 colon cancer cells; and C, H23 human lung cancer cells. 20 mg/kg was injected daily via i.p.
as §1, with “cancer.” for “cancer. Nat Chem. Biol. 2009 February; 5(2): 100-7; • Thorne C A, Hanson A J, Schneider J, Tahinci E, Orton D, Cselenyi C S, Jernigan K K, Meyers K C, Hang B I, Waterson A G, Kim K, Melancon B, Ghidu V P, Sulikowski G A, LaFleur B, Salic A, Lee L A, Miller D M 3rd, Lee E. Small-molecule inhibition of Wnt signaling through activation of casein kinase 1α.”

HT115 colon cancer cells = assay: Xenograft study, HT115; assay type: in vivo; conditions: HT115 xenograft in mice, 20 mg/kg daily i.p.
Procedure: as §2
as §1, with “cancer.” for “cancer. Nat Chem. Biol. 2009 February; 5(2): 100-7; • Thorne C A, Hanson A J, Schneider J, Tahinci E, Orton D, Cselenyi C S, Jernigan K K, Meyers K C, Hang B I, Waterson A G, Kim K, Melancon B, Ghidu V P, Sulikowski G A, LaFleur B, Salic A, Lee L A, Miller D M 3rd, Lee E. Small-molecule inhibition of Wnt signaling through activation of casein kinase 1α.”

[6] = tested on: Wnt/β-catenin-dependent cancer cells; assay: Cytotoxicity in Wnt/β-catenin-dependent cancer cells; assay type: cell-based
Text: as §1

[7] = tested on: H460 human lung cancer cells; assay: Wnt/b-catenin-independent tumor growth, H460; assay type: in vivo; conditions: Wnt/b-catenin-independent H460 tumors in mice
Text: as §1

normal cells = assay: Cytotoxicity in normal cells; assay type: cell-based
Text: as §1

mammary tumor = assay: Spontaneous mouse model of breast cancer (MMTV-Wnt1); assay type: in vivo; conditions: MMTV-Wnt1 tumor mice
Text: Raj L, Ide T, Gurkar A U, Foley M, Schenone M, Li X, Tolliday N J, Golub T R, Carr S A, Shamji A F, Stern A M, Mandinova A, Schreiber S L, Lee S W. Selective killing of cancer cells by a small molecule targeting the stress response to ROS. Nature. 2011 Jul. 13; 475(7355):231-4; • Huang S, Li Y, Chen Y, Podsypanina K, Chamorro M, Olshen A B, Desai K V, Tann A, Petersen D, Green J E, Varmus H E. Changes in gene expression during the development of mammary tumors in MMTV-Wnt-1 transgenic mice. Genome Biol. 2005; 6(10):R84.

[8] = tested on: HCT116 colon cancer cells; assay: Xenograft study, HCT116; assay type: in vivo; conditions: HCT116 xenograft in mice, 20 mg/kg daily i.p.
Procedure: as §2
as §1, with “cancer.” for “cancer. Nat Chem. Biol. 2009 February; 5(2): 100-7; • Thorne C A, Hanson A J, Schneider J, Tahinci E, Orton D, Cselenyi C S, Jernigan K K, Meyers K C, Hang B I, Waterson A G, Kim K, Melancon B, Ghidu V P, Sulikowski G A, LaFleur B, Salic A, Lee L A, Miller D M 3rd, Lee E. Small-molecule inhibition of Wnt signaling through activation of casein kinase 1α.”

β-catenin [9] = assay: Western blotting and immunoprecipitation of β-catenin forms; assay type: cell-based
Text: as §1, with “1α. Nat Chem. Biol. 2010 November; 6(11):829-36; • Wei W, Chua M S. Grepper S, So S. Small molecule antagonists of Tcf4/beta-catenin complex inhibit the growth of HCC cells in vitro and in vivo. Int J Cancer. 2010 May 15; 126(10):2426-36; • Lepourcelet M, Chen Y N, France D S, Wang H, Crews P, Petersen F, Bruseo C, Wood A W, Shivdasani R A. Small-molecule antagonists of the oncogenic Tcf/beta-catenin protein complex. Cancer Cell. 2004 January; 5(1):91-102; • Grossmann T N, Yeh J T, Bowman B R, Chu Q, Moellering R E, Verdine G L. Inhibition of oncogenic Wnt signaling through direct targeting of β-catenin. Proc Natl Acad Sci USA. 2012 Oct. 15.” for “1α.”

[10] = tested on: β-catenin/TCF-dependent genes; assay: Wnt/β-catenin target gene expression (real-time quantitative PCR, protein level); assay type: cell-based
Procedure: A. mRNA expression was measured by Real-time quantitative PCR.
as §1, with “1α. Nat Chem. Biol. 2010 November; 6(11):829-36; • Wei W, Chua M S. Grepper S, So S. Small molecule antagonists of Tcf4/beta-catenin complex inhibit the growth of HCC cells in vitro and in vivo. Int J Cancer. 2010 May 15; 126(10):2426-36; • Lepourcelet M, Chen Y N, France D S, Wang H, Crews P, Petersen F, Bruseo C, Wood A W, Shivdasani R A. Small-molecule antagonists of the oncogenic Tcf/beta-catenin protein complex. Cancer Cell. 2004 January; 5(1):91-102; • Grossmann T N, Yeh J T, Bowman B R, Chu Q, Moellering R E, Verdine G L. Inhibition of oncogenic Wnt signaling through direct targeting of β-catenin. Proc Natl Acad Sci USA. 2012 Oct. 15.” for “1α.”

[11] = tested on: Wnt/β-catenin-dependent cancer cells; assay: Colony formation; assay type: cell-based; conditions: a number of Wnt/β-catenin-dependent cancer cells
Text: as §1

COC(=O)c1cccc(NS(=O)(=O)c2ccc(C)cc2)c1 [OC0021, methyl 3-{[(4-methylphenyl)sulfonyl]amino}benzoate]
beta-catenin binding its target gene promoters [1]: inhibits beta-catenin binding its target gene promoters | Wnt-induced β-catenin accumulation (β-catenin [2]): inhibits Wnt-induced β-catenin accumulation | beta-catenin protein levels (β-catenin [3]; HCT116 cells): decreases beta-catenin protein levels | β-catenin degradation / phosphorylation at T41/S45 (β-catenin [3]; HCT116 colon cancer cells): promotes β-catenin degradation via increased β-catenin phosphorylation at T41/S45 | cytotoxic effect [4]: no significant cytotoxic | TCF/LEF reporter activity (β-catenin/TCF): inhibits the TCF/LEF reporter activity | transcriptional activity of β-catenin/TCF (β-catenin/TCF; human colon cancer cells HCT116 with beta-catenin mutation): inhibits the transcriptional activity of β-catenin/TCF in a dose dependent manner | anti-tumor activity [5]: anti-tumor activity | anti-tumor activity (HT115 colon cancer cells): anti-tumor activity | cytotoxic effect [6]: cytotoxic effect | tumor growth [7]: does not affect | cytotoxic effect (normal cells): no significant cytotoxic | growth of mammary tumor (mammary tumor): inhibits the growth of mammary tumor | anti-tumor activity [8]: anti-tumor activity | ABC (Active form of b-catenin) (β-catenin [9]): supresses ABC | expression of oncogene Myc target gene (β-catenin [9]): inhibits the expression of oncogene Myc target gene | phosphorylated β-catenins (phospho-β-catenin-33/37/41; -41/45) (β-catenin [9]): increases phosphorylated β-catenins | protein level of endogenous β-catenin/TCF-dependent genes, Cyclin D1 and c-Myc [10]: down regulates the protein level | stability of Axin1 and Axin2 [10]: enhances stability of Axin1 and Axin2 | Wnt/β-catenin-mediated gene transcription (mRNA expression of Myc, cyclin D1, Axin1 and 2) ([10]; Real-time quantitative PCR): modulates Wnt/β-catenin-mediated gene transcription | colony formation [11]: inhibits colony formation

Reference: patent US9469606B2, “Wnt/b-catenin inhibitors and methods of use” (The General Hospital Corporation, priority 2011, dated 2016)
